One may read the IC50 as the point on the concentration scale where inhibition reaches its midpoint. As usually defined, the LD50 is the dose expected to kill half of the subjects tested.

Each structure is given as a SMILES string. Read-outs that look alike come from different tables or passages of the source.

Data set [1] concerns the target T1, PAF radioreceptor (dog platelets) (Canis lupus familiaris, UniProt A0A8I3NSH0).
T1 construct: Platelet rich plasma is prepared by centrifugation of citrate-treated dog blood; from tissue; host or cells: washed dog platelets
T1 sequence (A0A8I3NSH0 1-343): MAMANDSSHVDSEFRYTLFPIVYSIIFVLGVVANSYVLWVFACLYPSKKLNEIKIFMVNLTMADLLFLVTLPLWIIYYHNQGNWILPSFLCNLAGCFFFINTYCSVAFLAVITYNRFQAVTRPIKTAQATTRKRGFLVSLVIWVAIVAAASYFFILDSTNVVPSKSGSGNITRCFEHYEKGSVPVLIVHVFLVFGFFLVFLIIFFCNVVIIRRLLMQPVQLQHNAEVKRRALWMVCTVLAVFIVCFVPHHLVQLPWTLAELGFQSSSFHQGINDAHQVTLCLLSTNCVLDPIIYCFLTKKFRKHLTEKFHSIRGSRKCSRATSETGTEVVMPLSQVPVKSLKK
Description: PAF radioreceptor binding assay. The settings on record: 3H-PAF. As for the experimental part:
(m) PAF Radioreceptor Binding Assay
Platelet rich plasma is prepared by centrifugation of citrate-treated dog blood. Acidification to pH 6.5 with 0.15M citric acid and centrifugation for 10 minutes at 1000 g yields a platelet pellet which is then washed by resuspension in EDTA-Phosphate Buffered Saline (PBS) and recentrifuged. The washed platelet preparation is adjusted to 2×10^7 platelets/50 μl in 0.1% BSA-PBS.
To a […] microfuge tube containing 50 μl silicone oil (specific gravity 1.023) is added buffer, PAF standard or analog, or an extract to bring the aqueous volume to 150 μl. 50 μl of ^3 H-PAF (10,000 cpm, 45 Ci/mM) is added followed by 2×10^7 dog platelets. After mixing, incubating for 10 minutes at room temperature, and centrifuging for 1 minute in a Beckman Microfuge B (8000 g), the pellet is removed by clipping off the tip of the tube, solubilizing the platelets with 200 μl of 50% methanol, and counting in 10 ml of Aquasol.

Data set [2] concerns leukotriene E induced bronchoconstriction. In words: LTE-induced bronchoconstriction in guinea pigs, in vivo (i.v. / oral). Details: species or system guinea pig (Hartley strain). The settings on record: Cavia porcellus, read-out: ID50 (the source's name).
Data set [3] concerns acetylcholine-induced constriction in guinea pig ilea. Description: Antagonism of acetylcholine-induced constriction in guinea pig ilea. The note with it: 5.0×10^-7 M acetylcholine; read-out: IC50 antagonism of acetylcholine-induced constrictions. As for the experimental part:
(e) Antagonism of Acetylcholine-induced Constriction in Guinea Pig Ilea
Anticholinergic activity was determined on a segment of guinea pig ileum that was suspended in a 37° C. bath of oxygenated Tyrodes solution. At 4 minute intervals, the ileum was challenged with 5.0×10^-7 M acetylcholine for sufficient time to produce a peak contraction and then washed with fresh Tyrodes solution. After the tissue response to acetylcholine had stablized, the ileum was pretreated with the standard anticholinergic, atropine sulfate, for 1 minute prior to rechallenge with acetylcholine, the contraction recorded and the tissue washed with Tyrodes solution. […] The IC50 for atropine was 1×10^-8 M. THe IC50 's for test drugs were determined by this same procedure.

The nature of data set [4]: LD50 in mice (acute toxicity). The note with it: mouse, in vivo.
Data set [5] concerns cutaneous anaphylaxis in passively sensitized rats. In words: Inhibition of allergic mediator release in the rat passive cutaneous anaphylaxis test. The note with it: po, p.o., read-out: ID50 inhibition of allergic mediator release (PCA test). The format is in vivo, rat (Sprague-Dawley). As for the experimental part:
(i) Inhibition of Cutaneous Anaphylaxis in Passively Sensitized Rats
(l) Preparation of Antiserum
IgE-containing rat antiserum (reaginic antiserum) was prepared according to the following procedure. Normal, male Sprague-Dawley rats (150-200 g) obtained from Charles River Laboratories, Wilmington, Mass., were immunized by an intraperitoneal injection of 0.5 ml Bordetella pertussis vaccine (Cannaught Laboratories, Willowdale, Toronto, Canada, 20 ou/ml) containing 100 μg egg albumin (Nutritional Biochemical Corp., Cleveland, Ohio). On day 16, Nippostrongylus brasiliensis (3000 larvae/0.1 ml) was administered subcutaneously and on day 21, 10 μg of egg albumin was administered intraperitoneally in 0.5 ml normal saline. On day 30, blood was collected by heart puncture and the serum was separated by centrifugation and refrigerated overnight at 5° C. […]
The passive cutaneous anaphylaxis (PCA) test was performed on 190-220 g male Sprague-Dawley rats (Charles River Breeding Laboratories, Wilmington, Mass.), in a manner similar to that described by J. Goose and A.M.J.N. Blair, Immunology, 16, 749(1969). […] The long and short axis of each wheal was measured with a metric vernier caliper and the average diameter was obtained for each reaction. […] The ID50 was calculated by the method of J. Berkson, J.Am.Stat.Assoc., 48, 565(1953).

Setting [6] is: po, orally (2 hours pretreatment).

As to `CC(C)c1ccc2nc3ccc(C(=O)NCCCCCCc4cccnc4)cn3c(=O)c2c1` [Compound C, 2-(1-Methylethyl)-N-[6-(3-pyridyl)hexyl]-11-oxo-11H-pyrido[2,1-b]quinazoline-8-carboxamide], in data set [1], the IC50 amounted to 1000 nM.

Consider `CC(C)c1ccc2nc3ccc(C(=O)NCCCCc4cccnc4)cn3c(=O)c2c1` [Compound B, 2-(1-methylethyl)-N-[4-(3-pyridyl)butyl]-11-oxo-11H-pyrido[2,1-b]quinazoline-8-carboxamide], for which the ED50 in data set [2] (iv) amounted to 0.3 mg/kg; in data set [2] (setting [6]), 60 mg/kg; in data set [5] (5 min, 5 minute pretreatment) it was 21 mg/kg. In addition, the IC50 in data set [1] is 450 nM; in data set [3], 7000 nM. The same compound yielded an LD50 in data set [4] (po, orally) of more than 1000 mg/kg.

With `CC(C)c1ccc2nc3ccc(C(=O)NCCCCn4ccnc4)cn3c(=O)c2c1` [Compound A, N-[4-(1H-imidazol-1-yl)butyl]-2-(1-methylethyl)-11-oxo-11H-pyrido[2,1-b]quinazoline-8-carboxamide], the ED50 in data set [2] (iv) stood at 0.9 mg/kg; in data set [2] (setting [6]) it was 47 mg/kg; in data set [5] (10 min, 10 minute pretreatment), 20 mg/kg. The IC50 in data set [3] came to 5000 nM. Also, the LD50 came to 22 mg/kg in data set [4] (ip, intraperitoneally) and 775 mg/kg in data set [4] (po, orally).

The values above are taken from patent US4551460A, “Pyrido[2,1-b]quinazoline derivatives useful as agents for treatment of allergic conditions and vascular disorders involving thrombosis” (priority 1983, dated 1985).
